Test results from patent US20040014639A1, “Product and method for control of obesity” (priority 2000, published 2004).
“Also recorded” adds a separate entry of the source.

How the values were obtained:
[1] = system: 3T3-F442 cells; assay: in vitro lipolysis (glycerol release), 1 hour incubation; assay type: cell-based, mouse; details: for shape of lipolytic dose response: 1 hour, varying concentrations, agent alone
Method: Referring now to FIG. 1, 3T3-F442 cells (an immortal mouse adipocyte cell line) were incubated for 1 hour with varying concentrations of the rodent beta 3 agonist BRL 37344. […] In a third sample, AOD 9604 and BRL 37344 were co-administered with varying concentrations of AOD 9604, together with the maximal concentration of 1 μM of the BRL 37344.

[2] = system: adipocytes; assay: sensitisation of adipocytes to beta 3 agonist: 4 hour pre-incubation, then BRL 37344 for a further hour, lipolysis; assay type: cell-based, mouse; details: for lipolytic effect of the beta 3 agonist after pre-incubation: 4 hour pre-incubation at varying concentrations, then 50 nanomolar BRL 37344 for a further hour
Method: Referring now to FIG. 2, an experiment was performed to determine whether hGH (FIG. 2A) or AOD 9604 (FIG. 2B) sensitises the adipocytes to the actions of the beta 3 agonists. First, the adipocytes were incubated with hGH or AOD 9604 at varying concentrations for four hours. The cells were then further incubated with a half-maximal concentration of BRL 37344 of 50 nanomolar for a further hour.

[3] = system: beta 3 messenger RNA; assay: beta 3 messenger RNA expression after chronic treatment of ob/ob mice; assay type: in vivo; details: versus control ob/ob mice
[4] = system: C57Bl/6J (Ob/Ob) mouse; details: by injection; cited from earlier work
[5] = system: ob/ob mice; assay: fat mass after chronic treatment of ob/ob mice; assay type: in vivo
Text: It is believed that the obesity reducing effect of AOD9604 is at least in part a result of this sensitisation to the lipolytic affects of endogenous catecholamines (ie. epinephrine). Accordingly, chronic co-administration of AOD9604 and a beta 3 agonist will enhance the anti-obesity action of either agent administered alone.

[6] = system: beta 3 messenger RNA; assay: beta 3 messenger RNA expression in adipocytes after four-hour incubation (PCR/RT-PCR, normalised to β-actin); assay type: cell-based, mouse; details: 4 hour incubation
Method: Referring now to FIG. 3, the effect of the four-hour incubation of the adipocytes with hGH (FIG. 3A) or AOD 9604 (FIG. 3B) at two concentrations on expression of beta 3 messenger RNA was assessed using PCR/RT-PCR analysis of the content of beta 3 messenger RNA, using β-actin to normalise the data.

[7] = target: beta 3 adrenergic receptor (Mus musculus, UniProt P25962); assay: agonism at the beta 3 adrenergic receptor
beta 3 adrenergic receptor, sequence (P25962 whole entry): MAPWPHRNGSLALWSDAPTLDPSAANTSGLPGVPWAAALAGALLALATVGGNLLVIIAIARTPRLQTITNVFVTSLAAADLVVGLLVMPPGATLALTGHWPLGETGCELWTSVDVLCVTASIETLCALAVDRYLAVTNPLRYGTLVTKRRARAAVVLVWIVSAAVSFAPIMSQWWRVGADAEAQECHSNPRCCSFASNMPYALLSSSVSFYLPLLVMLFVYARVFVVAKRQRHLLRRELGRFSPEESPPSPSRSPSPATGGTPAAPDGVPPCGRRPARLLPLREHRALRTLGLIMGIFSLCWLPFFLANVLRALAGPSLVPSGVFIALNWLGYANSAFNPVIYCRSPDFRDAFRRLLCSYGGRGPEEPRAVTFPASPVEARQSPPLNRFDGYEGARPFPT

For `C[C@H](Cc1ccc(OCC(=O)O)cc1)NC[C@H](O)c1cccc(Cl)c1` [BRL 37344], the “concentration giving maximal lipolytic effect” value ([1]; 1 hour incubation) was 1 µM, the “maximal effect, glycerol released” value ([1]; 1 hour incubation, at 1 μM) was “approximately 6 μM per milligram protein” and the “shape of lipolytic dose response” value [1] was “sigmoid-shaped dose response”. For the same molecule, the EC50 ([2]; adipocytes, read-out: half-maximal concentration (lipolysis)) was 50 nM.

With hGH: human growth hormone the “beta 3 messenger RNA in brown adipocytes” value ([3]; 1.0 mg/kg/day for 14 days) was “increase”, the “beta 3 messenger RNA in white adipocytes” value ([3]; 1.0 mg/kg/day for 14 days) was “increase” and the “lipolytic effect of the beta 3 agonist after pre-incubation” value [2] was “synergistic effect; also recorded: enhanced”.

For “hGH 177-191: synthetic peptide corresponding to amino acid residues 177-191 of the human growth hormone sequence (LRIVQCRSVEGSCGF; UniProt P01241 203-217, looked up, fragment)”, the adipose tissue mass [4] is given as “reduce” and the body weight gain [4] is given as “reduce”.

With Tyr-hGH 177-191 [AOD9604] the “fat mass of the treated animals” value [5] was “significant reduction”, the “shape of lipolytic dose response” value [1] was “bell-shaped acute lipolytic response” and the “beta 3 messenger RNA in brown adipocytes” value ([3]; 0.25 mg/kg/day for 14 days) was “increase”. The “beta 3 messenger RNA in white adipocytes” value ([3]; 0.25 mg/kg/day for 14 days) was “increase”, the “expression of beta 3 messenger RNA” value [6] was “increase” and the “agonist activity at the beta 3 adrenergic receptor” value [7] was “not an agonist”. The “lipolytic effect of the beta 3 agonist after pre-incubation” value [2] was “synergistic effect; also recorded: enhanced”.
